Assay [1] deals with T1, panel of 442 kinases (Homo sapiens, UniProt Q7L7X3).
T1 construct: purchased KINOMEscan
T1 sequence (Q7L7X3 1-1001): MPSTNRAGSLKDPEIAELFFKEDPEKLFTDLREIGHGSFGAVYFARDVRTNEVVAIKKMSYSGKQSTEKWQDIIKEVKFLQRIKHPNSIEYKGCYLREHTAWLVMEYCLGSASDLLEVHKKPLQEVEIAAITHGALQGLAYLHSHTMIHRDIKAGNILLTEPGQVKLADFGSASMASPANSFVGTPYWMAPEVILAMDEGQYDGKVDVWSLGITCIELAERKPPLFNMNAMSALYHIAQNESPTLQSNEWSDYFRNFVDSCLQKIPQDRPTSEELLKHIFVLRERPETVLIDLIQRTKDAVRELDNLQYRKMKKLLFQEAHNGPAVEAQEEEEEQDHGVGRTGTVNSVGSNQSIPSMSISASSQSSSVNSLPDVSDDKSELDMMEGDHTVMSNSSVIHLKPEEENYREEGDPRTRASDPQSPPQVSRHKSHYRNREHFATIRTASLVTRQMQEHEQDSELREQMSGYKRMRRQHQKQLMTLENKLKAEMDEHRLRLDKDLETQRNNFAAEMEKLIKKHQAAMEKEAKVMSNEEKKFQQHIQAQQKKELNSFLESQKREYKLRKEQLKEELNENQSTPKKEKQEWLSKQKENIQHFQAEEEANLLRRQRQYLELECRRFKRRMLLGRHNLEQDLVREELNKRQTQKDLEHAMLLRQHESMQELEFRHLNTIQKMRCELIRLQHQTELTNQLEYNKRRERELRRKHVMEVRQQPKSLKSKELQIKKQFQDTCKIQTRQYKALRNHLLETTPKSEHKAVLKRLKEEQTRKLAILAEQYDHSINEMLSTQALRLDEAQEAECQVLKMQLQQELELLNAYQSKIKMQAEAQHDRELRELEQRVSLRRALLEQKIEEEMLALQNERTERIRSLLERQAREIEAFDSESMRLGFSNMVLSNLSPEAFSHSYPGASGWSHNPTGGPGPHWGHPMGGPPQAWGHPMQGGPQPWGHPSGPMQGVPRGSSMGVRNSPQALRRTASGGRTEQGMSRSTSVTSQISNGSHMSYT
Format: binding. The following applies: kinase TAOK1; compound concentration 10 µM. The text has this:
(§1) We assessed the selectivity of members of this scaffold using the KINOMEscan methodology across a near comprehensive panel of 442 kinases [[18,27]].

Assay [2] deals with T2, panel of 442 kinases (Homo sapiens, UniProt P42336, C420R).
T2 construct: purchased KINOMEscan
Format: binding. The following applies: Compound Concentration 10 µM.
Source text: as §1

T2 sequence (P42336 whole entry C420R): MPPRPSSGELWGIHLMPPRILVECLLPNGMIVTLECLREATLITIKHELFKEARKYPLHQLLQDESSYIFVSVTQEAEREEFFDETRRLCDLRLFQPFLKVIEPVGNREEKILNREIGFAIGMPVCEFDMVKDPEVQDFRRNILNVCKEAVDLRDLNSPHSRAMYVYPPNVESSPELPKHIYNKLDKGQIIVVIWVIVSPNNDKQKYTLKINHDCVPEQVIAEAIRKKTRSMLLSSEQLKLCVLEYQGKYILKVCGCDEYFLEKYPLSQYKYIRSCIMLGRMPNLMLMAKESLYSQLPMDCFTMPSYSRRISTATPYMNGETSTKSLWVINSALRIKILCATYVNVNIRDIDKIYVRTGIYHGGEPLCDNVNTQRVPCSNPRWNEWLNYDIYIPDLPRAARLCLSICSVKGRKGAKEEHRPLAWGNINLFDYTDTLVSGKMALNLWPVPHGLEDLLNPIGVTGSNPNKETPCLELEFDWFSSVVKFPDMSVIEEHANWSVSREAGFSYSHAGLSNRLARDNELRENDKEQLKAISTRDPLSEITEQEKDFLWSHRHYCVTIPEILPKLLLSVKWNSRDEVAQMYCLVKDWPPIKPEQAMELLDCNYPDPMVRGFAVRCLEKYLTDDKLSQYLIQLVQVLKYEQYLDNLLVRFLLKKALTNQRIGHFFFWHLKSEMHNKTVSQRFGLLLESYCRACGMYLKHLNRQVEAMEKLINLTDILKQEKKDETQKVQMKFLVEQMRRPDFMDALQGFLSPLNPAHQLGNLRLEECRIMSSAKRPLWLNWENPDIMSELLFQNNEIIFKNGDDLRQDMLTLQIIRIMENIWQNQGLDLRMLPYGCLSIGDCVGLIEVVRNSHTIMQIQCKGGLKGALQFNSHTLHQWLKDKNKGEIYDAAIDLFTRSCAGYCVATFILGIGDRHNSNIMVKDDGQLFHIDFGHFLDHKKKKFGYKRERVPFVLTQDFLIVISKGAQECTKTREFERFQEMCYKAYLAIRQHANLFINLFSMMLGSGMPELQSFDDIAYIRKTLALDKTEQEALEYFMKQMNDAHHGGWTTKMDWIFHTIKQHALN

For the molecule `COc1cc(C(=O)N2CCC(N3CCN(C)CC3)CC2)ccc1Nc1ncc2c(n1)N(C)c1ccccc1C(=O)N2C` [15 (LRRK2-IN-1)], in assay [1], the “% Ctrl, TAOK1” value is 28 % Ctrl. The “KINOMEscan: PIK3CA(C420R)” value in assay [2] was found to be 89.

For the molecule `COc1cc(C(=O)N2CCC(N3CCN(C)CC3)CC2)ccc1Nc1ncc2c(n1)N(C1CCCC1)c1ccccc1C(=O)N2C` [Compound 25, 11-cyclopentyl-2-((2-methoxy-4-(4-(4-methylpiperazin-1-yl)piperidine-1-carbonyl)phenyl)amino)-5-methyl-5H-benzo[e]pyrimido[5,4-b][1,4]diazepin-6(11H)-one], in assay [1], the “% Ctrl, TAOK1” value is 51 % Ctrl. For the same molecule, the “KINOMEscan: PIK3CA(C420R)” value in assay [2] came out at 100.

Turning to `CCOc1cc(C(=O)N2CCC(N3CCN(C)CC3)CC2)ccc1Nc1ncc2c(n1)N(C1CCCC1)c1ccccc1C(=O)N2C` [Compound 26], the “% Ctrl, TAOK1” value in assay [1] came to 79 % Ctrl. The “KINOMEscan: PIK3CA(C420R)” value in assay [2] turned out to be 99.
